Where two headings read alike, the source gives them in different places.

What all share (assay type): in vivo
Assay [1] deals with Green Peach Aphid (Myzus persicae). The assay can be described thus: Test on controlling effects against green peach aphid (leaf dip). Particulars: foliar, 120 h. From the text: Test on Controlling Effects Against Green Peach Aphid (Myzus persicae)
Mortality (%)=(1−(number of survived insects/number of treated insects))×100

Assay [2] relates to Common Cutworm (Spodoptera litura). Kind of assay: Test on controlling effects against common cutworm (cabbage leaf disk dip). To be noted: foliar. From the text: Test on Controlling Effects Against Common Cutworm (Spodoptera litura)
Mortality (%)=(Number of dead larvae/number of released larvae)×100

Assay [3] concerns Two-Spotted Spider Mite (Tetranychus urticae). The assay can be described thus: Test on adults of two-spotted spider mite (kidney bean leaf dip). To be noted: foliar, adults dipped together with kidney bean leaf, second or third day after the treatment, 25° C. The text has this:
Test on Adults of Two-Spotted Spider Mite (Tetranychus urticae)
Mortality of adults (%)=(Number of dead two-spotted spider mites/Number of treated two-spotted spider mites)×100

Where [4] appears, read: 800 ppm, Japanese radish leaf dipped about 10 seconds, first instar nymphs, counted 5 days after the treatment, 25° C., read-out: mortality.
The mark [5] stands for this setting: 800 ppm, cabbage leaf disk dipped about 10 seconds, second-third instar larvae, fifth day after the release, 25° C., read-out: mortality.

A word on the mortality: it is the share of the test organisms that died. `O=[N+]([O-])c1cnc(N(Cc2ccccn2)Cc2ccccn2)cc1C(F)(F)F` [Compound No. 9, N,N-BIS(2-PYRIDYLMETHYL)-5-NITRO-4-(TRIFLUOROMETHYL)-2-PYRIDYLAMINE]: the mortality at 800 ppm in assay [1] (in Raphanus sativus) and in assay [2] was not below 90% throughout.
`N#Cc1c(C(F)(F)F)cc(N(Cc2ccccn2)Cc2ccccn2)nc1Cl` [Compound No. 24, N,N-bis(2-pyridylmethyl)-6-chloro-5-cyano-4-(trifluoromethyl)-2-pyridylamine]: the mortality at 800 ppm in assay [1] (in Raphanus sativus) and in assay [2] was not below 90% in each case.
On to `C=CCN(Cc1ccccn1)c1cc(C(F)(F)F)c(Cl)c(Cl)n1` [Compound No. 55, N-ALLYL-N-(2-PYRIDYLMETHYL)-5,6-DICHLORO-4-(TRIFLUOROMETHYL)-2-PYRIDYLAMINE], for which the mortality at 800 ppm in assay [1] (setting [4]), in assay [3] and in assay [2] (setting [5]) was not below 90% throughout.
Take `FC(F)(F)c1cc(Br)nc(N(Cc2ccccn2)Cc2ccccn2)c1` [Compound No. 90, N,N-BIS(2-PYRIDYLMETHYL)-6-BROMO-4-(TRIFLUOROMETHYL)-2-PYRIDYLAMINE]: the mortality at 800 ppm in assay [1] (setting [4]) and in assay [3] was not below 90% each time.
Take `FC(F)(F)c1cc(N(Cc2ccccn2)Cc2ccccn2)nc(Br)c1Cl` [Compound No. 92, N,N-BIS(2-PYRIDYLMETHYL)-6-BROMO-5-CHLORO-4-(TRIFLUOROMETHYL)-2-PYRIDYLAMINE]: the mortality at 800 ppm in assay [1] (setting [4]), in assay [3] and in assay [2] (setting [5]) was not below 90% each time.
`C#Cc1nc(N(Cc2ccccn2)Cc2ccccn2)cc(C(F)(F)F)c1Cl` [Compound No. 94, N,N-BIS(2-PYRIDYLMETHYL)-5-CHLORO-6-ETHYNYL-4-(TRIFLUOROMETHYL)-2-PYRIDYLAMINE]: the mortality at 800 ppm in assay [1] (setting [4]) and in assay [3] was not below 90% each time.
Take `CC(c1cccnc1)N(Cc1ccccn1)c1cc(C(F)(F)F)c(Cl)c(Cl)n1` (stereo not drawn) [Compound No. 97, N-(1-(3-PYRIDYL)ETHYL)-N-(2-PYRIDYLMETHYL)-5,6-DICHLORO-4-TRIFLUOROMETHYL-2-PYRIDYLAMINE]: the mortality at 800 ppm in assay [1] (setting [4]), in assay [3] and in assay [2] (setting [5]) was not below 90% in each case.
Regarding `FC(F)(F)c1cc(N(Cc2ccccn2)Cc2ccccn2)nc(C(F)(F)F)c1Cl` [Compound No. 103, N,N-BIS(2-PYRIDYLMETHYL)-5-CHLORO-4,6-BIS(TRIFLUOROMETHYL)-2-PYRIDYLAMINE], the mortality at 800 ppm in assay [1] (setting [4]), in assay [3] and in assay [2] (setting [5]) was not below 90% each time.
For the molecule `FC(F)(F)c1cc(NCc2ccccn2)nc(Cl)c1Cl` [Compound No. 118, N-(2-PYRIDYLMETHYL)-5,6-DICHLORO-4-(TRIFLUOROMETHYL)-2-PYRIDYLAMINE], the mortality at 800 ppm in assay [1] (setting [4]), in assay [3] and in assay [2] (setting [5]) was not below 90% in each case.
Consider `FC(F)(F)c1cc(Cl)nc(NCc2ccccn2)c1` [Compound No. 128, N-(2-PYRIDYLMETHYL)-6-CHLORO-4-(TRIFLUOROMETHYL)-2-PYRIDYLAMINE], for which the mortality at 800 ppm in assay [1] (setting [4]) is not below 90%.
